The values below come from patent publication US9303015B2, “Heteroaryl linked quinolinyl modulators of RORγt” (Janssen Pharmaceutica NV, priority 2012, dated 2016).

Counter-ions that a name gives are not always drawn.

For the first assay, the target named is human RORγt LBD (Homo sapiens (Human), UniProt P51449). The experiment in a line: RORγt reporter assay (GAL4-RORγt LBD luciferase, HEK293T cells). The class given is cell-based. The following applies: 6 μM, HEK293T cells. An excerpt: A reporter assay was used to test functional activity of RORγt modulatory compounds on transcriptional activation driven by the RORγt LBD. Cells used in the assay were co-transfected with two constructs. The first construct, pBIND-RORγt LBD, contained the wild type human RORγt LBD fused to the DNA binding domain of the GAL4 protein. The second construct, pGL4.31 (Promega Cat no. C935A), contained multiple GAL4 responsive DNA elements upstream of firefly luciferase. […] The mutant construct was called pBIND-RORγt-AF2. […] The pBIND vector contains the GAL4 DNA Binding Domain (GAL4 DBD) and the renilla luciferase gene under control of the SV40 promoter. Renilla luciferase expression serves as a control for transfection efficiency and cell viability.
Chain of human RORγt LBD (P51449 258-518): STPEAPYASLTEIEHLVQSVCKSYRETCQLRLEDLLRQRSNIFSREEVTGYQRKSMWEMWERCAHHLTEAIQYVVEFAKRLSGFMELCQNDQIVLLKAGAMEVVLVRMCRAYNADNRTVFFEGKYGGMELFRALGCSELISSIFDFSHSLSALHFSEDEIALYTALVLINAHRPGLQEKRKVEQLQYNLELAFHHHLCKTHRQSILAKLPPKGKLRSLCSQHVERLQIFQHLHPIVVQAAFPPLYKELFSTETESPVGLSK
The reporter assay was performed by transiently transfecting HEK293T cells with 5 μg of pBIND-RORγt LBD or pBIND-RORγt LBD-AF2 and 5 μg pGL4.31 (Promega Cat no. C935A) using Fugene 6 (Invitrogen Cat no. E2691) at a 1:6 ratio of DNA: Fugene 6 in a T-75 flask in which cells were at least 80% confluent. Twenty four hours after bulk transfection, cells were plated into 96-well plates at 50,000 cells/well in phenol-red free DMEM containing 5% Lipid Reduced FCS and Pen/Strep. Six hours after plating, cells were treated with compounds for 24 hours. Media was removed and cells were lysed with 50 μL 1x Glo Lysis Buffer (Promega). Dual Glo Luciferase Reagent (50 μL/well) was then added and firefly luciferase luminescence was read on an Envision after a ten minute incubation. Finally, Stop and Glo reagent (50 μL/well) was added and renilla luciferase luminescence was read on an Envision after a ten minute incubation. To calculate the effect of compounds on RORγt activity, the ratio of firefly to renilla luciferase was determined and plotted against compound concentration. Agonist compounds increase RORγt-driven luciferase expression, and antagonist or inverse agonist compounds decrease luciferase expression.
For orientation: A reporter such as luciferase makes a cellular process visible.
Consider `CCN(CC)c1nc2ccc(C(O)(c3ccc(Cl)cc3)c3cncn3C)cc2c(Cl)c1Oc1ccccc1` (single isomer, unassigned) [Example 3b, (4-Chloro-2-(diethylamino)-3-phenoxyquinolin-6-yl)(4-chlorophenyl)(1-methyl-1H-imidazol-5-yl)methanol], for which the “RORγt reporter Assay, % inhibition @ 6 μM” value is on record as 77%. For the compound `CCOc1nc2ccc(C(O)(c3ccc(C(F)(F)F)nc3)c3cncn3C)cc2c(Cl)c1Oc1ccc(F)cc1` (single isomer, unassigned) [Example 14b, (4-Chloro-2-ethoxy-3-(4-fluorophenoxy)quinolin-6-yl)(1-methyl-1H-imidazol-5-yl)(6-(trifluoromethyl)pyridin-3-yl)methanol], the “RORγt reporter Assay, % inhibition @ 6 μM” value is on record as 69%. The same measure, in the same setting: then `CCOc1nc2ccc(C(O)(c3ccc(C(F)(F)F)nc3)c3cncn3C)cc2c(Cl)c1Oc1ccc(F)cc1` (single isomer, unassigned) [Example 14c, (4-Chloro-2-ethoxy-3-(4-fluorophenoxy)quinolin-6-yl)(1-methyl-1H-imidazol-5-yl)(6-(trifluoromethyl)pyridin-3-yl)methanol], with 18%. Same read-out and setting: then `COc1nc2ccc(C(O)(c3ccc(Cl)cc3)c3cncn3C)cc2c(Cl)c1Oc1ccccc1` (single isomer, unassigned) [Example 15c, (4-Chloro-2-methoxy-3-phenoxyquinolin-6-yl)(4-chlorophenyl)(1-methyl-1H-imidazol-5-yl)methanol], with 82%; and `CCOc1nc2ccc(C(O)(c3ccc(C(F)(F)F)nc3)c3cncn3C)cc2c(C(F)(F)F)c1Oc1ccc(Cl)cc1` (single isomer, unassigned) [Example 25c, (3-(4-Chlorophenoxy)-2-ethoxy-4-(trifluoromethyl)quinolin-6-yl)(1-methyl-1H-imidazol-5-yl)(6-(trifluoromethyl)pyridin-3-yl)methanol], with 67%.

The same assay, now with this note: HEK293T cells, 24 hours compound treatment.
One may read the IC50 as the point on the concentration scale where inhibition reaches its midpoint. Low values mean greater potency, high ones weaker potency. `Cn1cncc1C(O)(c1ccc(C(F)(F)F)nc1)c1ccc2nc(C#N)c(Oc3ccccc3)c(C#N)c2c1` (centres unmarked) [Example 22a, 6-(Hydroxy(1-methyl-1H-imidazol-5-yl)(6-(trifluoromethyl)pyridin-3-yl)methyl)-3-phenoxyquinoline-2,4-dicarbonitrile] displayed an IC50 of approximately 6 µM.

The same assay, now with this note: HEK-293T, read-out: RORγt reporter Assay, % inhibition @ 6 μM, 6 μM, HEK293T cells.
By inhibition is commonly meant the drop in the measured response relative to a control, in per cent. `COc1nc2ccc(C(O)(c3ccc(Cl)cc3)c3cncn3C)cc2c(Cl)c1Oc1ccccc1` (single isomer, unassigned) [Example 15b, (4-Chloro-2-methoxy-3-phenoxyquinolin-6-yl)(4-chlorophenyl)(1-methyl-1H-imidazol-5-yl)methanol]: the inhibition at 6 µM amounted to 86%. Same read-out and setting: then `COc1ccc(C(O)(c2ccc3nc(Cl)c(Oc4ccccc4)c(Cl)c3c2)c2cncn2C)cn1` (centres unmarked) [Example 4, (2,4-Dichloro-3-phenoxyquinolin-6-yl)(6-methoxypyridin-3-yl)(1-methyl-1H-imidazol-5-yl)methanol], with 92%. Turning to `CCN(CC)c1nc2ccc(C(O)(c3ccc(C(F)(F)F)nc3)c3cncn3C)cc2c(Cl)c1Oc1ccc(F)cc1` (centres unmarked) [Example 9a], the inhibition at 6 µM is 97%. On the same count and under the same terms, the same measure for `CCOc1nc2ccc(C(O)(c3ccc(OC)nc3)c3cncn3C)cc2c(Cl)c1Oc1ccccc1` (centres unmarked) [Example 10a, (4-Chloro-2-ethoxy-3-phenoxyquinolin-6-yl)(6-methoxypyridin-3-yl)(1-methyl-1H-imidazol-5-yl)methanol.TFA]: 95%; for `CCOc1nc2ccc(C(O)(c3ccc(C(F)(F)F)nc3)c3cncn3C)cc2c(Cl)c1Oc1ccc(F)cc1` (centres unmarked) [Example 14a, (4-Chloro-2-ethoxy-3-(4-fluorophenoxy)quinolin-6-yl)(1-methyl-1H-imidazol-5-yl)(6-(trifluoromethyl)pyridin-3-yl)methanol]: 55%. Still for that read-out and setting: the same measure for `COc1nc2ccc(C(O)(c3ccc(Cl)cc3)c3cncn3C)cc2c(Cl)c1Oc1ccccc1` (centres unmarked) [Example 15a, (4-Chloro-2-methoxy-3-phenoxyquinolin-6-yl)(4-chlorophenyl)(1-methyl-1H-imidazol-5-yl)methanol]: 83%; for `COc1c(Oc2ccccc2)c(Cl)nc2ccc(C(O)(c3ccc(Cl)cc3)c3cncn3C)cc12` (centres unmarked) [Example 18, (2-Chloro-4-methoxy-3-phenoxyquinolin-6-yl)(4-chlorophenyl)(1-methyl-1H-imidazol-5-yl)methanol]: 88%; for `Cn1cncc1C(O)(c1ccc(C(F)(F)F)nc1)c1ccc2nc(C#N)c(Oc3ccccc3)c(Cl)c2c1` (centres unmarked) [Example 21, 4-Chloro-6-(hydroxy(1-methyl-1H-imidazol-5-yl)(6-(trifluoromethyl)pyridin-3-yl)methyl)-3-phenoxyquinoline-2-carbonitrile.TFA]: 80%.

With `Cn1cncc1C(O)(c1ccc(C(F)(F)F)nc1)c1ccc2nc(C#N)c(Oc3ccccc3)c(C#N)c2c1` (centres unmarked) [Example 22a, 6-(Hydroxy(1-methyl-1H-imidazol-5-yl)(6-(trifluoromethyl)pyridin-3-yl)methyl)-3-phenoxyquinoline-2,4-dicarbonitrile], the inhibition at 6 µM is 55%.

With `Cn1cncc1C(O)(c1ccc(Cl)cc1)c1ccc2nc(C#N)c(Oc3ccc(F)cc3)c(Cl)c2c1` (centres unmarked) [Example 23, 4-Chloro-6-((4-chlorophenyl)(hydroxy)(1-methyl-1H-imidazol-5-yl)methyl)-3-(4-fluorophenoxy)quinoline-2-carbonitrile.TFA], the inhibition at 6 µM came to 80%. Still for that read-out and setting: the same measure for `Cn1cncc1C(O)(c1ccc(C(F)(F)F)nc1)c1ccc2nc(C#N)c(Oc3ccc(Cl)cc3)c(C(F)(F)F)c2c1` (centres unmarked) [Example 24, 3-(4-Chlorophenoxy)-6-(hydroxy(1-methyl-1H-imidazol-5-yl)(6-(trifluoromethyl)pyridin-3-yl)methyl)-4-(trifluoromethyl)quinoline-2-carbonitrile]: 55%. Same read-out and setting: then `CCOc1nc2ccc(C(O)(c3ccc(C(F)(F)F)nc3)c3cncn3C)cc2c(C(F)(F)F)c1Oc1ccc(Cl)cc1` (centres unmarked) [Example 25a, (3-(4-Chlorophenoxy)-2-ethoxy-4-(trifluoromethyl)quinolin-6-yl)(1-methyl-1H-imidazol-5-yl)(6-(trifluoromethyl)pyridin-3-yl)methanol], with 75%. Still for that read-out and setting: the same measure for `CCN(CC)c1nc2ccc(C(O)(c3ccc(Cl)cc3)c3cncn3C)cc2c(C(F)(F)F)c1Oc1ccccc1` (centres unmarked) [Example 29, (4-Chlorophenyl)(2-(diethylamino)-3-phenoxy-4-(trifluoromethyl)quinolin-6-yl)(1-methyl-1H-imidazol-5-yl)methanol.TFA]: 93%; for `Cn1cncc1C(O)(c1ccc(Cl)cc1)c1ccc2nc(N3CCC3)c(Oc3ccc(C#N)cc3)c(Cl)c2c1` (centres unmarked) [Example 32a, 4-((2-(Azetidin-1-yl)-4-chloro-6-((4-chlorophenyl)(hydroxyl)(1-methyl-1H-imidazol-5-yl)methyl)quinolin-3-yl)oxy)benzonitrile]: 102%; for `COCCN(C)c1nc2ccc(C(O)(c3ccc(C(F)(F)F)nc3)c3cncn3C)cc2c(Cl)c1Oc1ccccc1` (centres unmarked) [Example 34, (4-Chloro-2-((2-methoxyethyl)(methyl)amino)-3-phenxoyquinolin-6-yl)(1-methyl-1H-imidazol-5-yl)(6-(trifluoromethyl)pyridin-3-yl)methanol.TFA]: 95%. In the case of `CCN(CC)c1nc2ccc(C(O)(c3ccc(Cl)cc3)c3cncn3C)cc2c(Cl)c1N(C(=O)OC(C)(C)C)c1ccccc1` (centres unmarked) [Example 44, tert-Butyl (4-chloro-6-((4-chlorophenyl)(hydroxyl)(1-methyl-1H-imidazol-5-yl)methyl)-2-(diethylamino)quinolin-3-yl)(phenyl)carbamate.TFA], the inhibition at 6 µM stood at 62%. `Cn1cncc1C(O)(c1ccc(C(F)(F)F)nc1)c1ccc2nc(Cl)c(Oc3ccc(Cl)cc3)c(C(F)(F)F)c2c1` (centres unmarked) [Example 46, (2-Chloro-3-(4-chlorophenoxy)-4-(trifluoromethyl)quinolin-6-yl)(1-methyl-1H-imidazol-5-yl)(6-(trifluoromethyl)pyridin-3-yl)methanol]: the inhibition at 6 µM came out at 39%.
